What was measured:
Assay type in all cases: in vivo
[1] = system: Spodoptera littoralis; experiment: Spodoptera littoralis (Egyptian Cotton Leafworm) cotton leaf disc spray test; conditions: foliar, 72 h, 200 ppm spray on cotton leaf discs, L1 larvae, mortality, feeding behavior, growth regulation 3 DAT
[2] = system: Plutella xylostella; experiment: Plutella xylostella (Diamond Back Moth) artificial diet MTP test; conditions: 144 h, 200 ppm (concentration in well 18 ppm), L2 larvae, 6 days, larval mortality, growth regulation
[3] = system: Heliothis virescens; experiment: Heliothis virescens (Tobacco Budworm) egg test on artificial diet; conditions: 96 h, 200 ppm (concentration in well 18 ppm), eggs 0-24 h old on artificial diet, 4 days, egg mortality, larval mortality, growth regulation
[4] = system: Diabrotica balteata; experiment: Diabrotica balteata (Corn Root Worm) artificial diet MTP test; conditions: 120 h, 200 ppm (concentration in well 18 ppm), L2 larvae, 5 days, larval mortality, growth regulation

Structure (SMILES) | pest or weed control at 200 ppm [1] | pest or weed control at 200 ppm [2] | pest or weed control at 200 ppm [3] | pest or weed control at 200 ppm [4]
COc1c(NC(=O)c2ccco2)cccc1C(=O)Nc1c(Cl)cc(C(F)(C(F)(F)F)C(F)(F)F)cc1Cl [E10] | ≥ 80% | ≥ 80% | ≥ 80% | 
COc1c(NC(=O)c2ncc(C(F)(F)F)cc2Cl)cccc1C(=O)Nc1c(Cl)cc(C(F)(C(F)(F)F)C(F)(F)C(F)(F)F)cc1Br (stereo not shown) [B141] | ≥ 80% | ≥ 80% | ≥ 80% | 
COc1c(NC(=O)c2sc(Cl)nc2C)cccc1C(=O)Nc1c(Cl)cc(C(F)(C(F)(F)F)C(F)(F)C(F)(F)F)cc1Br (stereo not shown) [B105] | ≥ 80% | ≥ 80% |  | 
COc1c(NC(=O)c2c(C)nn(C)c2Cl)cccc1C(=O)Nc1c(Cl)cc(C(F)(C(F)(F)F)C(F)(F)C(F)(F)F)cc1Br (stereo not shown) [B142] | ≥ 80% |  |  | 
COc1c(NC(=O)c2ccc(S(C)(=O)=O)c(OC)c2Cl)cccc1C(=O)Nc1c(Cl)cc(C(F)(C(F)(F)F)C(F)(F)C(F)(F)F)cc1Br (stereo not shown) [B114] | ≥ 80% | ≥ 80% | ≥ 80% | 
COc1c(NC(=O)c2sccc2Br)cccc1C(=O)Nc1c(Cl)cc(C(F)(C(F)(F)F)C(F)(F)C(F)(F)F)cc1Br (stereo not shown) [B57] |  | ≥ 80% |  | 
COc1c(NC(=O)c2cccc(C)c2C)cccc1C(=O)Nc1c(C)cc(C(F)(C(F)(F)F)C(F)(F)C(F)(F)F)cc1C (stereo not shown) [F11] |  | ≥ 80% |  | 
COc1c(NC(=O)c2ncccn2)cccc1C(=O)Nc1c(Cl)cc(C(F)(C(F)(F)F)C(F)(F)C(F)(F)F)cc1Br (stereo not shown) [B71] | ≥ 80% | ≥ 80% |  | 
COc1c(NC(=O)c2sccc2C)cccc1C(=O)Nc1c(Cl)cc(C(F)(C(F)(F)F)C(F)(F)C(F)(F)F)cc1Br (stereo not shown) [B88] | ≥ 80% | ≥ 80% | ≥ 80% | 
COc1ccccc1C(=O)Nc1cccc(C(=O)Nc2c(Cl)cc(C(F)(C(F)(F)F)C(F)(F)C(F)(F)F)cc2Br)c1OC (stereo not shown) [B17] | ≥ 80% |  | ≥ 80% | 
COc1c(NC(=O)c2ccccc2OC(F)(F)F)cccc1C(=O)Nc1c(Cl)cc(C(F)(C(F)(F)F)C(F)(F)C(F)(F)F)cc1Br (stereo not shown) [B16] | ≥ 80% | ≥ 80% |  | 
COc1c(NC(=O)c2cn(C)nc2C(F)(F)F)cccc1C(=O)Nc1c(Cl)cc(C(F)(C(F)(F)F)C(F)(F)C(F)(F)F)cc1Br (stereo not shown) [B152] | ≥ 80% | ≥ 80% | ≥ 80% | 
COc1c(NC(=O)c2csc(Cl)c2OC)cccc1C(=O)Nc1c(Cl)cc(C(F)(C(F)(F)F)C(F)(F)C(F)(F)F)cc1Br (stereo not shown) [B147] | ≥ 80% |  |  | 
COc1c(NC(=O)c2cc(C(F)(F)F)ccc2F)cccc1C(=O)Nc1c(Cl)cc(C(F)(C(F)(F)F)C(F)(F)C(F)(F)F)cc1Br (stereo not shown) [B24] | ≥ 80% |  |  | 
COc1c(NC(=O)c2ccc(F)c([N+](=O)[O-])c2)cccc1C(=O)Nc1c(Cl)cc(C(F)(C(F)(F)F)C(F)(F)C(F)(F)F)cc1Br (stereo not shown) [B77] | ≥ 80% | ≥ 80% | ≥ 80% | 
COc1c(NC(=O)c2cc(Cl)cc(Cl)c2O)cccc1C(=O)Nc1c(Cl)cc(C(F)(C(F)(F)F)C(F)(F)C(F)(F)F)cc1Br (stereo not shown) [B160] |  | ≥ 80% |  | 
COc1c(NC(=O)c2cc(Cl)ccc2F)cccc1C(=O)Nc1c(Cl)cc(C(F)(C(F)(F)F)C(F)(F)C(F)(F)F)cc1Cl (stereo not shown) [C10] | ≥ 80% |  | ≥ 80% | ≥ 80%
COc1c(NC(=O)c2c(C)noc2C)cccc1C(=O)Nc1c(Cl)cc(C(F)(C(F)(F)F)C(F)(F)C(F)(F)F)cc1Br (stereo not shown) [B157] | ≥ 80% |  | ≥ 80% | 
COc1c(NC(=O)c2ccccc2OC(F)(F)F)cccc1C(=O)Nc1c(Cl)cc(C(F)(C(F)(F)F)C(F)(F)F)cc1Cl [E14] | ≥ 80% | ≥ 80% | ≥ 80% | 
COc1c(NC(=O)c2ncc(Br)cn2)cccc1C(=O)Nc1c(Cl)cc(C(F)(C(F)(F)F)C(F)(F)C(F)(F)F)cc1Br (stereo not shown) [B187] | ≥ 80% | ≥ 80% |  | ≥ 80%
COc1c(NC(=O)c2ccco2)cccc1C(=O)Nc1c(C)cc(C(F)(C(F)(F)F)C(F)(F)C(F)(F)F)cc1C (stereo not shown) [F4] | ≥ 80% | ≥ 80% | ≥ 80% | 
COc1c(NC(=O)c2ccc(C)cc2Cl)cccc1C(=O)Nc1c(Cl)cc(C(F)(C(F)(F)F)C(F)(F)C(F)(F)F)cc1Br (stereo not shown) [B182] | ≥ 80% | ≥ 80% | ≥ 80% | 
COc1c(NC(=O)c2cc(Cl)ccc2F)cccc1C(=O)Nc1c(C)cc(C(F)(C(F)(F)F)C(F)(F)C(F)(F)F)cc1C (stereo not shown) [F12] | ≥ 80% |  | ≥ 80% | ≥ 80%

Structure (SMILES) | pest or weed control at 200 ppm [1] | pest or weed control at 200 ppm [2] | pest or weed control at 200 ppm [3] | pest or weed control at 200 ppm [4]
COc1c(NC(=O)c2csnn2)cccc1C(=O)Nc1c(Cl)cc(C(F)(C(F)(F)F)C(F)(F)C(F)(F)F)cc1Br (stereo not shown) [B39] | ≥ 80% | ≥ 80% | ≥ 80% | 
COc1c(NC(=O)c2cc(Cl)cc(C(F)(F)F)c2)cccc1C(=O)Nc1c(Cl)cc(C(F)(C(F)(F)F)C(F)(F)C(F)(F)F)cc1Br (stereo not shown) [B70] | ≥ 80% |  | ≥ 80% | 
CCc1cc(C(F)(C(F)(F)F)C(F)(F)C(F)(F)F)cc(C)c1NC(=O)c1cccc(NC(=O)c2ccc(Cl)s2)c1OC (stereo not shown) [A21] | ≥ 80% | ≥ 80% | ≥ 80% | 
COc1c(NC(=O)c2ccc(Cl)cc2F)cccc1C(=O)Nc1c(C)cc(C(F)(C(F)(F)F)C(F)(F)C(F)(F)F)cc1C (stereo not shown) [F13] | ≥ 80% |  | ≥ 80% | 
COc1c(NC(=O)c2cc(Cl)cc(I)c2)cccc1C(=O)Nc1c(Cl)cc(C(F)(C(F)(F)F)C(F)(F)C(F)(F)F)cc1Br (stereo not shown) [B68] | ≥ 80% |  | ≥ 80% | 
COc1cccc(OC)c1C(=O)Nc1cccc(C(=O)Nc2c(Cl)cc(C(F)(C(F)(F)F)C(F)(F)C(F)(F)F)cc2Br)c1OC (stereo not shown) [B164] |  | ≥ 80% |  | 
COc1c(NC(=O)c2ccccc2OC(F)(F)F)cccc1C(=O)Nc1c(Cl)cc(C(F)(C(F)(F)F)C(F)(F)C(F)(F)F)cc1Cl (stereo not shown) [C16] |  |  | ≥ 80% | 
COc1c(NC(=O)c2cc(Cl)sc2Cl)cccc1C(=O)Nc1c(Cl)cc(C(F)(C(F)(F)F)C(F)(F)C(F)(F)F)cc1Br (stereo not shown) [B186] | ≥ 80% |  |  | 
CCc1cc(C(F)(C(F)(F)F)C(F)(F)F)cc(C)c1NC(=O)c1cccc(NC(=O)c2ccc(C#N)cc2Cl)c1OC [J1] |  | ≥ 80% |  | ≥ 80%
COc1c(NC(=O)c2ccc([N+](=O)[O-])c(O)c2)cccc1C(=O)Nc1c(Cl)cc(C(F)(C(F)(F)F)C(F)(F)C(F)(F)F)cc1Br (stereo not shown) [B181] |  |  |  | ≥ 80%
COc1c(NC(=O)c2cc([N+](=O)[O-])ccc2F)cccc1C(=O)Nc1c(Cl)cc(C(F)(C(F)(F)F)C(F)(F)C(F)(F)F)cc1Br (stereo not shown) [B148] | ≥ 80% | ≥ 80% | ≥ 80% | 
COc1c(NC(=O)c2ccccc2C)cccc1C(=O)Nc1c(C)cc(C(F)(C(F)(F)F)C(F)(F)C(F)(F)F)cc1C (stereo not shown) [F2] | ≥ 80% | ≥ 80% | ≥ 80% | 
COc1c(NC(=O)c2cc(Cl)ccc2F)cccc1C(=O)Nc1c(Cl)cc(C(F)(C(F)(F)F)C(F)(F)C(F)(F)F)cc1Br (stereo not shown) [B10] | ≥ 80% | ≥ 80% | ≥ 80% | 
COc1c(NC(=O)c2ccco2)cccc1C(=O)Nc1c(Cl)cc(C(F)(C(F)(F)F)C(F)(F)C(F)(F)F)cc1Br (stereo not shown) [B12] | ≥ 80% | ≥ 80% | ≥ 80% | 
COCc1nc(C)c(C(=O)Nc2cccc(C(=O)Nc3c(Cl)cc(C(F)(C(F)(F)F)C(F)(F)C(F)(F)F)cc3Br)c2OC)s1 (stereo not shown) [B95] | ≥ 80% | ≥ 80% | ≥ 80% | 
COc1c(NC(=O)c2cc([N+](=O)[O-])c(Cl)cc2F)cccc1C(=O)Nc1c(Cl)cc(C(F)(C(F)(F)F)C(F)(F)C(F)(F)F)cc1Br (stereo not shown) [B102] | ≥ 80% | ≥ 80% | ≥ 80% | 
COc1c(NC(=O)c2ocnc2C)cccc1C(=O)Nc1c(Cl)cc(C(F)(C(F)(F)F)C(F)(F)C(F)(F)F)cc1Br (stereo not shown) [B94] | ≥ 80% | ≥ 80% | ≥ 80% | 
COc1c(NC(=O)c2ccc(-c3ccccn3)s2)cccc1C(=O)Nc1c(Cl)cc(C(F)(C(F)(F)F)C(F)(F)C(F)(F)F)cc1Br (stereo not shown) [B48] | ≥ 80% | ≥ 80% | ≥ 80% | 
COc1c(NC(=O)c2ccc(-c3csnn3)cc2)cccc1C(=O)Nc1c(Cl)cc(C(F)(C(F)(F)F)C(F)(F)C(F)(F)F)cc1Br (stereo not shown) [B31] | ≥ 80% | ≥ 80% | ≥ 80% | 
COc1c(NC(=O)c2ncccc2C(F)(F)F)cccc1C(=O)Nc1c(Cl)cc(C(F)(C(F)(F)F)C(F)(F)C(F)(F)F)cc1Br (stereo not shown) [B188] | ≥ 80% |  | ≥ 80% | 
COc1ccccc1C(=O)Nc1cccc(C(=O)Nc2c(Cl)cc(C(F)(C(F)(F)F)C(F)(F)C(F)(F)F)cc2Cl)c1OC (stereo not shown) [C17] |  |  | ≥ 80% | 
COc1ccccc1C(=O)Nc1cccc(C(=O)Nc2c(Cl)cc(C(F)(C(F)(F)F)C(F)(F)F)cc2Cl)c1OC [E15] | ≥ 80% | ≥ 80% | ≥ 80% | 
